ChEMBL document CHEMBL5154672, “Design and synthesis of HDAC inhibitors to enhance the therapeutic effect of diffuse large B-cell lymphoma by improving metabolic stability and pharmacokinetic characteristics” (Eur J Med Chem, 2022)
pIC50: −log10 of the molar value. Activity calls are given as the source filed them. The calls are words filed in the database; no cut-off is given here.

Experiments:
[1] = tested on: TMD8; assay: Induction of cell cycle arrest in human TMD8 cells assessed as accumulation of cells at G2/M phase incubated for 24 hrs by propidium iodide based flow cytometric analysis; format: functional; details: dose 0.25-1 µM, DDE = dose-dependent effect
[2] = biological target: T1, Histone deacetylase 3 (Homo sapiens, UniProt O15379); assay: Inhibition of HDAC3 in human TMD8 cells assessed as histone H4 acetylation after 24 hrs by Western blot analysis; format: cell-based; details: dose 2.5-10 µM, DDE = dose-dependent effect
[3] = biological target: Histone deacetylase 7 (Homo sapiens) (UniProt Q8WUI4); assay: Inhibition of HDAC7 (unknown origin) assessed as remaining enzyme activity at 1 uM using Boc-(Trifluoroacetyl) Lysine-AMC fluorogenic peptide as substrate preincubated for 10 mins followed by substrate addition for 30 mins in presence of ATP by fluoroscence based assay relative to control; details: time 40.0 min
[4] = tested on: TMD8; assay: In vivo antitumor activity against TMD8 cells xenografted in CB.17 SCID mouse assessed as inhibition of tumor growth at 50 mg/kg/day, po for 21 consecutive days measured every 3 days by Vernier caliper; format: functional, organism-based; details: Homo sapiens, time 21.0 day
[5] = biological target: Histone deacetylase 9 (Homo sapiens) (UniProt Q9UKV0); assay: Inhibition of HDAC9 (unknown origin) assessed as remaining enzyme activity at 1 uM using Boc-(Trifluoroacetyl) Lysine-AMC fluorogenic peptide as substrate preincubated for 10 mins followed by substrate addition for 30 mins in presence of ATP by fluoroscence based assay relative to control; details: time 40.0 min
[6] = biological target: Histone deacetylase 5 (Homo sapiens) (UniProt Q9UQL6); assay: Inhibition of HDAC5 (unknown origin) assessed as remaining enzyme activity at 1 uM using Boc-(Trifluoroacetyl) Lysine-AMC fluorogenic peptide as substrate preincubated for 10 mins followed by substrate addition for 30 mins in presence of ATP by fluoroscence based assay relative to control; details: time 40.0 min
[7] = tested on: Mus musculus; assay: Upregulation of acetylated-H3 levels in CB.17 SCID mouse xenografted with human TMD8 cells at 50 to 100 mg/kg/day, po measured after 21 days by Western blot analysis; format: functional, organism-based; details: dose 50-100 mg/kg/day, time 21.0 day
[8] = biological target: T2, Histone deacetylase 2 (Homo sapiens, UniProt Q92769); assay: Inhibition of HDAC2 in human TMD8 cells assessed as histone H3 acetylation after 24 hrs by Western blot analysis; format: cell-based; details: dose 2.5-10 µM, DDE = dose-dependent effect
[9] = biological target: Protein deacetylase HDAC6 (Homo sapiens) (UniProt Q9UBN7); assay: Inhibition of HDAC6 (unknown origin) assessed as remaining enzyme activity at 1 uM using RHKK(Ac)AMC fluorogenic peptide as substrate preincubated for 10 mins followed by substrate addition for 1 hr in presence of ATP by fluoroscence based assay relative to control; details: time 70.0 min
[10] = biological target: T3, Histone deacetylase 1 (Homo sapiens, UniProt Q13547); assay: Inhibition of HDAC1 in human TMD8 cells assessed as histone H3 acetylation after 24 hrs by Western blot analysis; format: cell-based; details: dose 2.5-10 µM, DDE = dose-dependent effect
[11] = biological target: Histone deacetylase 11 (Homo sapiens) (UniProt Q96DB2); assay: Inhibition of HDAC11 (unknown origin) assessed as remaining activity using (Boc-(Trifluoroacetyl) Lysine-AMC) fluorogenic peptide as substrate preincubated for 10 mins followed by substrate addition for 30 mins in presence of ATP by fluoroscence assay relative to control; details: time 40.0 min
[12] = tested on: TMD8; assay: Induction of apoptosis in human TMD8 cells assessed as increase in cleaved PARP levels at 2.5 to 10 uM after 24 hrs by Western blot analysis; format: functional, cell-based; details: dose 2.5-10 µM
[13] = biological target: T3, Histone deacetylase 1; assay: Inhibition of HDAC1 in human TMD8 cells assessed as histone H4 acetylation after 24 hrs by Western blot analysis; format: cell-based; details: dose 2.5-10 µM, DDE = dose-dependent effect
[14] = biological target: T1, Histone deacetylase 3; assay: Inhibition of HDAC3 in human TMD8 cells assessed as histone H3 acetylation after 24 hrs by Western blot analysis; format: cell-based; details: dose 2.5-10 µM, DDE = dose-dependent effect
[15] = tested on: TMD8; assay: Induction of apoptosis in human TMD8 cells assessed as cleavage of inactive caspase-3 at 2.5 to 10 uM after 24 hrs by Western blot analysis; format: functional, cell-based; details: dose 2.5-10 µM
[16] = biological target: Histone deacetylase 4 (Homo sapiens) (UniProt P56524); assay: Inhibition of HDAC4 (unknown origin) assessed as remaining enzyme activity at 1 uM using Boc-(Trifluoroacetyl) Lysine-AMC fluorogenic peptide as substrate preincubated for 10 mins followed by substrate addition for 30 mins in presence of ATP by fluoroscence based assay relative to control; details: time 40.0 min
[17] = tested on: TMD8; assay: Induction of apoptosis in human TMD8 cells incubated for 24 hrs by propidium iodide based flow cytometric analysis; format: functional, cell-based; details: dose 0.25-1 µM, DDE = dose-dependent effect
[18] = tested on: TMD8; assay: Induction of apoptosis in human TMD8 cells assessed as increase in cleaved caspase-3 levels at 2.5 to 10 uM after 24 hrs by Western blot analysis; format: functional, cell-based; details: dose 2.5-10 µM
[19] = biological target: T2, Histone deacetylase 2; assay: Inhibition of HDAC2 in human TMD8 cells assessed as histone H4 acetylation after 24 hrs by Western blot analysis; format: cell-based; details: dose 2.5-10 µM, DDE = dose-dependent effect
[20] = tested on: DLBCL; assay: Cytotoxicity against human DLBCL cells assessed as cell growth inhibition; format: functional, cell-based
[21] = Metabolic stability in human liver microsomes assessed as half life measured for 75 to 130 mins by LC-MS/MS analysis; format: ADME, Microsome; details: time 75-130 min
[22] = tested on: HCT-116; assay: Antiproliferative activity against human HCT-116 cells assessed as remaining cell activity at 2 uM incubated for 72 hrs by luminescence assay relative to control; format: functional
[23] = tested on: CCRF-CEM; assay: Antiproliferative activity against human CCRF-CEM cells incubated for 72 hrs by luminescence assay; format: functional, cell-based
[24] = tested on: DOHH-2; assay: Antiproliferative activity against human DOHH-2 cells incubated for 72 hrs by luminescence assay; format: functional, cell-based; details: DOHH-2, 72 h
[25] = tested on: MDA-MB-231; assay: Antiproliferative activity against human MDA-MB-231 cells incubated for 72 hrs by luminescence assay; format: functional, cell-based; details: MDA-MB-231, 72 h
[26] = tested on: SK-OV-3; assay: Antiproliferative activity against human SK-OV-3 cells incubated for 72 hrs by luminescence assay; format: functional, cell-based; details: SK-OV-3, 72 h
[27] = Metabolic stability in human liver microsomes assessed as intrinsic clearance measured for 75 to 130 mins by LC-MS/MS analysis; format: ADME, Microsome; details: time 75-130 min
[28] = tested on: TMD8; assay: Antiproliferative activity against human TMD8 cells assessed as remaining cell activity at 2 uM incubated for 72 hrs by luminescence assay relative to control; format: functional
[29] = tested on: A549; assay: Antiproliferative activity against human A549 cells incubated for 72 hrs by luminescence assay; format: functional, cell-based; details: A549, 72 h
[30] = AUC (0 to infinity) in ICR mouse at 2 mg/kg, iv measured upto 24 hrs by LC-MS/MS analysis; format: ADME, organism-based; design: time < 24 hrs, dose 2 mg/kg, route iv; details: in vivo
[31] = tested on: HT-29; assay: Antiproliferative activity against human HT-29 cells incubated for 72 hrs by luminescence assay; format: functional, cell-based; details: HT-29, 72 h
[32] = tested on: MDA-MB-231; assay: Antiproliferative activity against human MDA-MB-231 cells assessed as remaining cell activity at 2 uM incubated for 72 hrs by luminescence assay relative to control; format: functional
[33] = MRT in ICR mouse at 25 mg/kg, po measured upto 24 hrs by LC-MS/MS analysis; format: ADME, organism-based; details: in vivo
[34] = tested on: NCI-H460; assay: Antiproliferative activity against human NCI-H460 cells incubated for 72 hrs by luminescence assay; format: functional, cell-based; details: NCI-H460, 72 h
[35] = AUC (0 to infinity) in ICR mouse at 25 mg/kg, po measured upto 24 hrs by LC-MS/MS analysis; format: ADME, organism-based; design: time < 24 hrs, dose 25 mg/kg, route po; details: in vivo
[36] = tested on: COLO-678; assay: Antiproliferative activity against human COLO-678 cells incubated for 72 hrs by luminescence assay; format: functional, cell-based; details: COLO-678, 72 h
[37] = Oral bioavailability in ICR mouse at 25 mg/kg measured upto 24 hrs by LC-MS/MS analysis; format: ADME, organism-based; details: in vivo
[38] = tested on: SU-DHL-2; assay: Antiproliferative activity against human SUDHL2 cells incubated for 72 hrs by luminescence assay; format: functional, cell-based; details: SU-DHL-2, 72 h
[39] = tested on: A549; assay: Antiproliferative activity against human A549 cells assessed as remaining cell activity at 2 uM incubated for 72 hrs by luminescence assay relative to control; format: functional
[40] = tested on: 786-0; assay: Antiproliferative activity against human 786-O cells incubated for 72 hrs by luminescence assay; format: functional, cell-based; details: 786-0, 72 h
[41] = tested on: TMD8; assay: Antiproliferative activity against human TMD8 cells incubated for 72 hrs by luminescence assay; format: functional, cell-based; details: TMD8, 72 h
[42] = tested on: Rec1; assay: Antiproliferative activity against human REC1 cells incubated for 72 hrs by luminescence assay; format: functional, cell-based; details: Rec1, 72 h
[43] = tested on: RS4-11; assay: Antiproliferative activity against human RS4-11 cells incubated for 72 hrs by luminescence assay; format: functional, cell-based; details: RS4-11, 72 h
[44] = tested on: HuT78; assay: Antiproliferative activity against human HuT78 cells incubated for 72 hrs by luminescence assay; format: functional, cell-based; details: HuT78, 72 h
[45] = Half life in ICR mouse at 25 mg/kg, po measured upto 24 hrs by LC-MS/MS analysis; format: ADME, organism-based; details: in vivo
[46] = tested on: NCI-H441; assay: Antiproliferative activity against human NCI-H441 cells incubated for 72 hrs by luminescence assay; format: functional, cell-based; details: NCI-H441, 72 h
[47] = Cmax in ICR mouse at 25 mg/kg, po measured upto 24 hrs by LC-MS/MS analysis; format: ADME, organism-based; design: time < 24 hrs, dose 25 mg/kg, route po; details: in vivo
[48] = Metabolic stability in mouse liver microsomes assessed as half life measured for 75 to 130 mins by LC-MS/MS analysis; format: ADME, Microsome; details: time 75-130 min
[49] = tested on: MOLT-4; assay: Antiproliferative activity against human MOLT-4 cells incubated for 72 hrs by luminescence assay; format: functional, cell-based; details: MOLT-4, 72 h
[50] = tested on: CWR22R; assay: Antiproliferative activity against human 22Rv1 cells incubated for 72 hrs by luminescence assay; format: functional, cell-based; details: 22Rv1, 72 h
[51] = biological target: T3, Histone deacetylase 1; assay: Inhibition of HDAC1 (unknown origin) using RHKK(Ac)AMC fluorogenic peptide as substrate preincubated for 10 mins followed by substrate addition for 1 hr in presence of ATP by fluoroscence based assay

T3 sequence (Q13547 whole entry): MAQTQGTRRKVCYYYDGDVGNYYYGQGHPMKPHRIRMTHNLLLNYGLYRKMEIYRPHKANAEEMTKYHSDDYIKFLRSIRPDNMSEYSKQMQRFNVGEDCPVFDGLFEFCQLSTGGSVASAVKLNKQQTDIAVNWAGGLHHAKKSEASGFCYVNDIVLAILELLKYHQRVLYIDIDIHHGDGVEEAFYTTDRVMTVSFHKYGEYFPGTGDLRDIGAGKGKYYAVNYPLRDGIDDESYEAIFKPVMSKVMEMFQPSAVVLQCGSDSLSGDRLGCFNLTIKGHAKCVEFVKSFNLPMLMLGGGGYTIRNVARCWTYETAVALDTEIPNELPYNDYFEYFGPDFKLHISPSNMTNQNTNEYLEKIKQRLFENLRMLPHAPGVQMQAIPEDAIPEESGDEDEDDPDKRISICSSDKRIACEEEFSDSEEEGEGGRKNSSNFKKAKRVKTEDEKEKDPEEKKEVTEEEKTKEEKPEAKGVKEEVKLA
T1 sequence (O15379 whole entry): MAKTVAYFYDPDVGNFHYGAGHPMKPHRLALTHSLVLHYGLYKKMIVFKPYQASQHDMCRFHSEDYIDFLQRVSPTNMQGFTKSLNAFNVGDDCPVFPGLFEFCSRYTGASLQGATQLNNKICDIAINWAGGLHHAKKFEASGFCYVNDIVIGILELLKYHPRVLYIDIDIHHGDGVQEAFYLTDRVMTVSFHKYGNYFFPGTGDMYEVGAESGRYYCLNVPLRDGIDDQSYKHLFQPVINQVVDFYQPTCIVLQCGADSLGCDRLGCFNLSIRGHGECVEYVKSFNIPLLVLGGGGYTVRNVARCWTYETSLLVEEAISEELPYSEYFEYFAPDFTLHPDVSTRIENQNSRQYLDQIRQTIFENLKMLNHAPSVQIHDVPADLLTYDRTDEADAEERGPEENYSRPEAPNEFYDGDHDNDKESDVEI
T2 sequence (Q92769 whole entry): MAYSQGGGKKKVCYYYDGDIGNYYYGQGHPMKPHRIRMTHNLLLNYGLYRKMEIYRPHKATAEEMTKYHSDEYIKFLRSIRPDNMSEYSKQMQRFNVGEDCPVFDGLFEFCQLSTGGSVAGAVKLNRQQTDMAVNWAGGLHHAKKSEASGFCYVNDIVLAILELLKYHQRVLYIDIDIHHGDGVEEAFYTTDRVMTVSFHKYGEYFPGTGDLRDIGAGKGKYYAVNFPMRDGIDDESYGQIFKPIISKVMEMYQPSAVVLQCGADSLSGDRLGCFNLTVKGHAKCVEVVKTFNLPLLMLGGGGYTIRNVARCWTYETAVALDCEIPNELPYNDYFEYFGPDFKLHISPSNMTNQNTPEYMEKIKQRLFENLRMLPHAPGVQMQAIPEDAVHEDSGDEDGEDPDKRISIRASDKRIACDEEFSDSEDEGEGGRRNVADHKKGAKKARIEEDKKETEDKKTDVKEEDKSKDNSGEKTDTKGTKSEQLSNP
Sequence of Histone deacetylase 11 (Homo sapiens) (Q96DB2 whole entry): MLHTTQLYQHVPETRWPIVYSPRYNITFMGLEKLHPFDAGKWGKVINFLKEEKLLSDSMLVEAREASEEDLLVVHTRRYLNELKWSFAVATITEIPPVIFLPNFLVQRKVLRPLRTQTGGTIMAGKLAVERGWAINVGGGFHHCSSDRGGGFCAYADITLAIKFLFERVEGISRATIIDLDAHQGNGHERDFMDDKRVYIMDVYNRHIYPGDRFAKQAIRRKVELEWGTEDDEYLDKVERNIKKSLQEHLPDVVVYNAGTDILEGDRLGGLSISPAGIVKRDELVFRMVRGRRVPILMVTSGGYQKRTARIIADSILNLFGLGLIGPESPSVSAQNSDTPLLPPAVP
Sequence of Histone deacetylase 5 (Homo sapiens) (Q9UQL6 whole entry): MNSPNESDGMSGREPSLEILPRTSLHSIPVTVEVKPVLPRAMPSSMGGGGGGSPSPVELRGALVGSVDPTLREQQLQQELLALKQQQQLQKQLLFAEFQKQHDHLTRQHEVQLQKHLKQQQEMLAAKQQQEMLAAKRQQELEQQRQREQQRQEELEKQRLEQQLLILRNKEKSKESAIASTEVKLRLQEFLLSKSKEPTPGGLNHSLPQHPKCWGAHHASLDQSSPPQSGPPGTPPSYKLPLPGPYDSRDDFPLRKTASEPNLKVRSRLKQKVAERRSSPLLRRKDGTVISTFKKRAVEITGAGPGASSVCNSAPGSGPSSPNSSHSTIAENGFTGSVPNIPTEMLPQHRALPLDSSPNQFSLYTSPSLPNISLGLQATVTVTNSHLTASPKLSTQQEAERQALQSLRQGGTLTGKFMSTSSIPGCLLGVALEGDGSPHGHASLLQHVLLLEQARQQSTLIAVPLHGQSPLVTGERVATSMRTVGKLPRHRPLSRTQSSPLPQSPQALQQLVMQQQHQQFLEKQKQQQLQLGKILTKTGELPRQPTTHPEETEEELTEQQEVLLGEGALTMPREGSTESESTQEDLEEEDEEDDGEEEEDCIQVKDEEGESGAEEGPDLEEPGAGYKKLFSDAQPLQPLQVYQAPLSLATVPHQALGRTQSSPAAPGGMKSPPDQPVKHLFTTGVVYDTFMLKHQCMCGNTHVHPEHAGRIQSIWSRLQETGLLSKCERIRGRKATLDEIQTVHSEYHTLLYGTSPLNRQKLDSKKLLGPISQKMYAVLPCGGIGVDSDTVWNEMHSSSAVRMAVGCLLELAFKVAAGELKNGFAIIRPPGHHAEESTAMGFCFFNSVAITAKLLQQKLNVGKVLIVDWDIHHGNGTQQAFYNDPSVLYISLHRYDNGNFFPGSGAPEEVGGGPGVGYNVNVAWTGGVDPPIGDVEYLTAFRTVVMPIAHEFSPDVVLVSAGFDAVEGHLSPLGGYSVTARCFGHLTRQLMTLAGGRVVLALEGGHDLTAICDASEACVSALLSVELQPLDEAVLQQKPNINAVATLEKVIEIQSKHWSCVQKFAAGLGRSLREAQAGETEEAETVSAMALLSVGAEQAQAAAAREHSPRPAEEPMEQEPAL
Sequence of Protein deacetylase HDAC6 (Homo sapiens) (Q9UBN7 whole entry): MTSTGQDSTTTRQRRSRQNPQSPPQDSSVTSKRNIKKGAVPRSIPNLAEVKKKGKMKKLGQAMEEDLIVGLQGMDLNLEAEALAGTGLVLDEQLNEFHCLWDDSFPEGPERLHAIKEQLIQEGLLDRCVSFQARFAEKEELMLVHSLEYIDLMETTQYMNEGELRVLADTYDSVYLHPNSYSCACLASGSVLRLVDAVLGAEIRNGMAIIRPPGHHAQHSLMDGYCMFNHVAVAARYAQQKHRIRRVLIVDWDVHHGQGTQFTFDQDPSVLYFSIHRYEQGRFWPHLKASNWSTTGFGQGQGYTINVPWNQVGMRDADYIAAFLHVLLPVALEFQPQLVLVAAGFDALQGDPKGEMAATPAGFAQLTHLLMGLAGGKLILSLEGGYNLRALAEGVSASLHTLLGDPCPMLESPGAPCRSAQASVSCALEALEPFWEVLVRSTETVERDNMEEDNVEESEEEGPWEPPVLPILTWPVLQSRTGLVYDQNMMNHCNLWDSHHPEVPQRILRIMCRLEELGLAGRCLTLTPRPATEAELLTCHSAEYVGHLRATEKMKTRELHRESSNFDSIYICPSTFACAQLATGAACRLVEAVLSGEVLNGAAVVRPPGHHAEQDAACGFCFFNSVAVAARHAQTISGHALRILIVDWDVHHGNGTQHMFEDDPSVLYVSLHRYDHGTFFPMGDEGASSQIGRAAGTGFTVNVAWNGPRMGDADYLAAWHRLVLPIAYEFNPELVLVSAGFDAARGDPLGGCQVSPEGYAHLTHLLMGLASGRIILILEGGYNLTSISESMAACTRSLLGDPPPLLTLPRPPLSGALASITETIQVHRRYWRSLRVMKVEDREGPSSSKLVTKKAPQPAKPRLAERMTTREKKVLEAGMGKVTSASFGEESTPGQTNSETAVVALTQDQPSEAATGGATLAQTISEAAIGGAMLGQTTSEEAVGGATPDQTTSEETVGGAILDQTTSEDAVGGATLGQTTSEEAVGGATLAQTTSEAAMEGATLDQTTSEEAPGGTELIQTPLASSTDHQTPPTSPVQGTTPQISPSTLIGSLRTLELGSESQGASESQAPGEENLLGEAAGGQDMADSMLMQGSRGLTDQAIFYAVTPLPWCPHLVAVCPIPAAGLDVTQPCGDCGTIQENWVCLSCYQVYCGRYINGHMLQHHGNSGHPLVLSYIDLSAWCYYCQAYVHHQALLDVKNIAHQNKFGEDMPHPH
Sequence of Histone deacetylase 7 (Homo sapiens) (Q8WUI4 whole entry): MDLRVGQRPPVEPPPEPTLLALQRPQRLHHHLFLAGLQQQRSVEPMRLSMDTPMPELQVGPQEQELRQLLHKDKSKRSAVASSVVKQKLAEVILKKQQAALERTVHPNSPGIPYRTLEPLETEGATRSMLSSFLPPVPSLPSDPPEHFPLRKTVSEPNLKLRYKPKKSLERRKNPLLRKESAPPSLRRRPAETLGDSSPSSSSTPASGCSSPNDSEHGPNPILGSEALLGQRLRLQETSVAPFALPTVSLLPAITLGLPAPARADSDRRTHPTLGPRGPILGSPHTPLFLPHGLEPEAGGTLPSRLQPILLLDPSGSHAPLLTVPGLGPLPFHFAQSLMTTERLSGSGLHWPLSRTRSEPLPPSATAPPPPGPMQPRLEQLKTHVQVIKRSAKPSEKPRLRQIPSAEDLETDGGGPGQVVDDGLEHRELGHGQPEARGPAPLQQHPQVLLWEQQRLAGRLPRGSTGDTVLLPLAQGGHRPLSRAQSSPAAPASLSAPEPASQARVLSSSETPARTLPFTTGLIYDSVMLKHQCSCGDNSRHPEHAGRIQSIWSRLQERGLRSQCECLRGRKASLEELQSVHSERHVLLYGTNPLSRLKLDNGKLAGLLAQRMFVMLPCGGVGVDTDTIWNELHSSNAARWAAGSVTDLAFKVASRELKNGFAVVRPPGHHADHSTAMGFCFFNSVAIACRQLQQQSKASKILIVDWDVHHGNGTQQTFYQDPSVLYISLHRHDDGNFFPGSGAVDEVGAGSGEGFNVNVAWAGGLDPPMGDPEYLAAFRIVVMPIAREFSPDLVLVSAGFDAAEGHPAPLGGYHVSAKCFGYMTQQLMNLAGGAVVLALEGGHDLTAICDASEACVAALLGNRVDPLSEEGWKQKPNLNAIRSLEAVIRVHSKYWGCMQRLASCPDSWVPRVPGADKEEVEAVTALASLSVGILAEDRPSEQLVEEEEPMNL

For `Nc1ccccc1NC(=O)c1ccc(CN2CCC/C(=C\c3ccccn3)C2=O)cc1`, the Activity [1] was “Dde”, the inhibition [2] was “Dde” and the Activity [3] was 88.1%. For the same compound, the Activity [4] was “Active”, the Activity [5] was 92.3% and the Activity [6] was 84.4%. The Activity [7] was “Active”, the inhibition [8] was “Dde” and the Activity [9] was 96.9%. The inhibition [10] was “Dde”, the Activity [11] was 92% and the Activity [12] was “Active”. For the same compound, the inhibition [13] was “Dde”, the inhibition [14] was “Dde” and the Activity [15] was “Active”. The Activity [16] was 81.2%, the Activity [17] was “Dde” and the Activity [18] was “Active”. For the same compound, the inhibition [19] was “Dde” and the Activity [20] was “Active”.
`Nc1cc(F)ccc1NC(=O)c1ccc(CNC(=O)/C=C/c2cccnc2)cc1` [TUCIDINOSTAT] gave a t1/2 ([21]; microsomes) of 6.27 h, an Activity [22] of 102.26% and a pIC50 [23] of 6.08. It also gave a pIC50 [24] of 6.28, a pIC50 [25] of 5.02 and a pIC50 [26] of 5.07. For the same compound, the “Intrinsic clearance in human liver microsomes” value ([27]; microsomes) was 1.7 µL/min/mg, the Activity [28] was 5.96% and the pIC50 [29] was 5.55. For the same compound, the AUC(0-inf) [30] was 1350 ng·h/mL, the pIC50 [31] was 5.22 and the Activity [32] was 69.91%. The MRT [33] was 4.2 h, the pIC50 [34] was 5.63 and the AUC(0-inf) [35] was 3520 ng·h/mL. For the same compound, the pIC50 [36] was < 5.00, the bioavailability [37] was 20.8% and the pIC50 [38] was 6.25. The Activity [39] was 96.6%, the pIC50 [40] was 6.20 and the pIC50 [41] was 6.32. It also gave a pIC50 [42] of 6.00, a pIC50 [43] of 6.22 and a pIC50 [44] of 5.62. For the same compound, the half-life [45] was 4 h, the pIC50 [46] was 5.58 and the Cmax [47] was 1220 ng/mL. The half-life [48] was 1.3 h, the pIC50 [49] was 6.12 and the pIC50 [50] was 5.97.
In the case of `Nc1ccccc1NC(=O)c1ccc(CN2CCC/C(=C\c3ccco3)C2=O)cc1`, the half-life ([21]; liver microsomes) was 5.18 h, the Activity [22] was 44.43% and the microsomal CLint ([27]; liver microsomes, read-out: CLH) was 4.45 µL/min/mg. For the same compound, the Activity [28] was 5.48%, the Activity [32] was 53.88% and the pIC50 [51] was 6.52. The Activity [39] was 61.8%.
